Measured values: patent EP0515684A1, “INHIBITOR OF DENATURED LDL FORMATION” (Chugai Seiyaku Kabushiki Kaisha, priority 1990, dated 1991)

What was measured:
rabbit LDL = experiment: Amount of thiobarbituric acid reactive substances (TBARS) formed on Cu2+ oxidation of LDL; format: biochemical; settings: 5 µM of Cu²⁺ added to rabbit LDL, followed by heating
Procedure: (§1) The biological properties of the compounds as shown hereinafter were examined by the following methods. • (1) The amount of thiobarbituric acid reactive substances: 5 µM of Cu²⁺ was added to rabbit LDL, prepared by the method reported by Havel et al., followed by heating. Then the antioxidative effect of each compound was examined by using the thiobarbituric acid reactive substances (TBARS) thus formed as the guidance. […] 0.5 ml of an n-butanol solution containing 0.2 µM of MCLA and 10 mM of linoleic acid was introduced into a vial for luminescence analysis and the luminescence due to autoxidation was measured in a thermostat at 37°C. […] To the obtained plasma, were added EDTA-NaN₃ (a 5% solution of pH 7.4) and a benzamidine solution (60 mg/ml) respectively in amounts of 0.8 ml and 0.5 ml per 100 ml of the plasma. Then rabbit or human LDL (1.019 < d < 1.063) was prepared by ultracentrifugation in accordance with the method of Havel et al.*. After performing the ultracentifugation again, the LDL was washed and concentrated. Then it was dialyzed against a 150 mM NaCl - 2 mM Na₂HPO₄ solution at 4°C and KBr was removed. The protein content was determined by Lowry method** and then the LDL was subjected to the subsequent procedure. (Measurement of electrophoretic mobility in agarose gel) 10 µM of Cu²⁺ and a specimen were added to an LDL-containing solution (3.00 µg protein/ml). After incubating at 37°C for approximately 24 hours, a portion (1 µl) thereof was applied onto an agarose gel film (Universal Film, manufactured by Corning Co.) and then subjected to electrophoresis (Agarose Gel Electrophoresis System for Lipoprotein, manufactured by Corning Co.). Thus the mobility was measured by staining lipids with Fat Red 7B. […] After 3 days, peritoneal macrophages were collected from the mouse and incubated in an RPMI 1640 medium containing 10% of FBS. The macrophages were used in the • examination on the next day.

rabbit or human LDL = experiment: Electrophoretic mobility in agarose gel of LDL oxidised with Cu2+; format: biochemical; settings: 10 µM of Cu²⁺, 37°C approximately 24 hours, expressed by regarding the mobility of LDL as 1.00 (Control 1.61)
Procedure: as §1

SMILES	Formed TBARS (%) (rabbit LDL; Compound conc. 10^-5 M, 10 µM)	Formed TBARS (%) (rabbit LDL; Compound conc. 10^-6 M, 1 µM)	Mobility (rabbit or human LDL; Compound conc. 10 x 10⁻⁶ M)	Mobility (rabbit or human LDL; Compound conc. 100 x 10⁻⁶ M)
COc1cc(NCc2ccccc2)cc(OC)c1OC [Compound 1, N-benzyl-3,4,5-trimethoxyaniline]	33	49	1.17	
COc1cc(NCc2nccn2CC=C(C)CCC=C(C)CCC=C(C)C)cc(OC)c1OC [Compound 100]	13	81		
COc1cc(NC2CCOc3ccccc32)cc(OC)c1OC (centres unmarked) [Compound 101]	18	41		
COc1cc(NCC2CCCC2)cc(OC)c1OC [Compound 102]	15	27		
COc1cc(NCC2CCCCC2)cc(OC)c1OC [Compound 103]	8	23		
COc1cc(N(CC2CCCCC2)CC2CCCCC2)cc(OC)c1OC [Compound 104]	23	31		
COc1cc(NC(C)C2CCCCC2)cc(OC)c1OC (centres unmarked) [Compound 105]	8	22		
CCCC(Nc1cc(OC)c(OC)c(OC)c1)C1CCCCC1 (centres unmarked) [Compound 106]	8	16		
C=CCC(Nc1cc(OC)c(OC)c(OC)c1)C1CCCCC1 (centres unmarked) [Compound 107]	7	20		
CCCCC(Nc1cc(OC)c(OC)c(OC)c1)C1CCCCC1 (centres unmarked) [Compound 108]	8	21		
COc1cc(NC2CCCC3CCCCC32)cc(OC)c1OC (centres unmarked) [Compound 109]	10	20		
COc1cc(NC2CCC3CCCCC3C2)cc(OC)c1OC (centres unmarked) [Compound 110]	7	16		
CCCCCCCCCCCCNc1cc(OC)c(OC)c(OC)c1 [Compound 113]	29	66		
CCCCCCCCCCCCN(CCCCCCCCCCCC)c1cc(OC)c(OC)c(OC)c1 [Compound 114]	93	94		
COc1cc(NCCC(C)CCCC(C)CCCC(C)CCCC(C)C)cc(OC)c1OC (centres unmarked) [Compound 115]	15	71		
COc1cc(NCC=C(C)C)cc(OC)c1OC [Compound 116]	33	61		
COc1cc(N(CC=C(C)C)CC=C(C)C)cc(OC)c1OC [Compound 117]	35	63		
COc1cc(NC/C=C(\C)CCC=C(C)C)cc(OC)c1OC [Compound 118]	37	56	1.17	
CC(C)(C)c1cc(CNCc2ccccc2)cc(C(C)(C)C)c1O [Compound 185, N-benzyl-3,5-di-tert-butyl-4-hydroxybenzylamine]			1.15	
CC(C)=CCC/C(C)=C/CCC(C)Nc1ccc(-c2cc(C(C)(C)C)c(O)c(C(C)(C)C)c2)cc1 (stereo not drawn) [Compound 188, 4-[4'-[(trans-1,5,9-trimethyl-4,8-decadienyl)amino]phenyl]2,6-di-tert-butylphenol]			1.15	
O=C(Nc1ccc(C(=O)c2ccccc2)cc1)c1ccc(O)c(O)c1 [Compound 194]			1.00	
O=C(c1ccc(O)c(O)c1)N1CCN(C(c2ccccc2)c2ccccc2)CC1 [Compound 197]			1.00	
Oc1ccc(-c2onc3ccc(Cl)cc23)cc1O [Compound 205, 3-(3',4'-dihydroxyphenyl)-5-chlorobenzoiso-oxazole]			1.00	
CC(C)=CCC/C(C)=C\CC/C(C)=C/Cn1cnc2c1C(=O)C(C)=C(C)C2=O [Compound 206, 5,6-dimethyl-1-[(2E,6Z)-3,7,11-trimethyldodeca-2,6,10-trienyl]-4,7-benzimidazoledione]				1.00
